According to US20230345936A1, “NOVEL ENVIRONMENT-FRIENDLY HERBICIDE” (KUNMING INSTITUTE OF BOTANY, CHINESE ACADEMY OF SCIENCES, priority 2022, published 2023):

Experiments:
[1] = system: Eupatorium adenophorum; assay: Spraying herbicide aqueous solution on Eupatorium adenophorum plants (contact killing); type: in vivo
Method: (1) 25 mL of the methyl 4-hydroxyphenylacetate herbicide aqueous solution prepared in Example 1 was taken and sprayed evenly on the surface of Eupatorium adenophorum plants.
When not sprayed, the Eupatorium adenophorum plant had one pair of top leaves, one head inflorescence, one pair of tender leaves under the top leaves, and three pairs of mature leaves. The plant was healthy and vigorous, with a height of 40-50 cm. […] The uppermost one pair of mature leaves among the three pairs of mature leaves withered in a large area. The lower two pairs of mature leaves began to wither from the edge inwards, and the axillary buds also died. These deaths were irreversible.
(2) 25 mL of the methyl 4-hydroxyphenylacetate herbicide aqueous solution prepared in Example 3 was taken and sprayed evenly on the surface of Eupatorium adenophorum plants.
When not sprayed, the Eupatorium adenophorum plant had one pair of top leaves, one head inflorescence, one pair of tender leaves under the inflorescence, and four pairs of mature leaves. The plant was healthy and vigorous, with a height of 40-50 cm.
(5) 25 mL of the methyl 4-hydroxyphenylacetate herbicide aqueous solutions prepared in Comparative Examples 1 to 2 were taken and sprayed evenly on the surface of Eupatorium adenophorum plants.

[2] = Dissolution of methyl 4-hydroxyphenylacetate in 15% ethanol solution; type: physicochemical; settings: 1.82787 g in 50 mL of 15% ethanol solution
Method: The methyl 4-hydroxyphenylacetate was purchased on the market. 1.82787 g of methyl 4-hydroxyphenylacetate was weighed, and added with 50 mL of a 15% absolute ethanol solution for dissolution.

COC(=O)Cc1ccc(O)cc1 [methyl 4-hydroxyphenylacetate, Methyl 4-hydroxyphenylacetate]
effect on Eupatorium adenophorum at use concentration greater than 150 mmol/L ([1]; sprayed once): contact killing effect
time after spraying until old leaves / plant are basically withered ([1]; use concentration greater than 150 mmol/L): 4 to 5 days
solubility in 15% absolute ethanol solution [2]: could not be sufficiently dissolved
